Laboratory results as given in patent publication US20250109168A1, “POLYPEPTIDE AND USE THEREOF IN REGULATING BLOOD GLUCOSE LEVEL AND/OR REDUCING FAT” (Greenyn Biotechnology Co., Ltd, priority 2023, published 2025).

Experiments:
PGC-1α = assay: Cell test: western blotting of PGC-1α in C2C12 mouse myoblasts; format: cell-based; conditions: for PGC-1α (change in expression): C2C12 mouse myoblasts, final concentration 20 μL/mL, 24 hours, western blotting; for Expression of PGC-1α, result in words: C2C12 cells, without induction by insulin, summary of Table 6
Description: [The source words this procedure for another target and reports this target under the same test.] (§1) C2C12 mouse myoblasts were obtained and were cultured in groups for 24 hours. After that, the culture medium of each group was added with human insulin (MedChemExpress LLC), polypeptide 1 of the present invention (SEQ ID No.: 1), polypeptide 2 of the invention (SEQ ID No.: 2), polypeptide 3 of the invention (SEQ ID No.: 3), polypeptide 4 of the invention (SEQ ID No.: 4), or polypeptide 5 (whose amino acid sequence number is SEQ ID No.: 5 and which was used for the control group) such that the final concentration of the added insulin/polypeptide in the culture medium was 20 μL/mL. The cells in each group were then cultured for another 24 hours, before the culture medium of each cell group was removed. The cells were subsequently washed with a phosphate-buffered solution, added with a radioimmunoprecipitation assay (RIPA) buffer containing a phosphatase inhibitor, and kept in a refrigerator, allowing reactions to take place for 30 minutes. Following that, the cells were thawed, subjected to vibration extraction with an ultrasonic vibrator for 5 minutes, and centrifuged. The supernatant of each cell group was collected and was analyzed by the western blotting method in order to determine changes in the expression of p-IR/IR, p-Akt, GLUT4, mTOR, PPARα, and p-AMPK in each cell group.

p-IR/IR = assay: Cell test: western blotting of p-IR/IR in C2C12 mouse myoblasts; format: cell-based; conditions: for p-IR/IR (change in expression): C2C12 mouse myoblasts, final concentration 20 μL/mL, 24 hours, western blotting; for Insulin receptor phosphorylation (p-IR/IR), result in words: C2C12 cells, without induction by insulin, summary of Table 6
Description: as §1

p-Akt = assay: Cell test: western blotting of p-Akt in C2C12 mouse myoblasts; format: cell-based; conditions: for p-Akt (change in expression): C2C12 mouse myoblasts, final concentration 20 μL/mL, 24 hours, western blotting; for Expression of phosphorylated Akt, result in words: C2C12 cells, without induction by insulin, summary of Table 6
Description: as §1

PPARα = assay: Cell test: western blotting of PPARα in C2C12 mouse myoblasts; format: cell-based; conditions: for PPARα (change in expression): C2C12 mouse myoblasts, final concentration 20 μL/mL, 24 hours, western blotting; for Expression of PPARα, result in words: C2C12 cells, without induction by insulin, summary of Table 6
Description: as §1

GLUT4 = assay: Cell test: western blotting of GLUT4 in C2C12 mouse myoblasts; format: cell-based; conditions: for GLUT4 (change in expression): C2C12 mouse myoblasts, final concentration 20 μL/mL, 24 hours, western blotting; for Expression of GLUT4, result in words: C2C12 cells, without induction by insulin, summary of Table 6
Description: as §1

mTOR = assay: Cell test: western blotting of mTOR in C2C12 mouse myoblasts; format: cell-based; conditions: final concentration 20 μL/mL, 24 hours
Description: as §1

p-AMPK = assay: Cell test: western blotting of p-AMPK in C2C12 mouse myoblasts; format: cell-based; conditions: final concentration 20 μL/mL, 24 hours
Description: as §1

insulin receptor = insulin receptor (mouse, UniProt P15208 28-1372); assay: cell-based or functional assay
Chain of insulin receptor (P15208 28-1372): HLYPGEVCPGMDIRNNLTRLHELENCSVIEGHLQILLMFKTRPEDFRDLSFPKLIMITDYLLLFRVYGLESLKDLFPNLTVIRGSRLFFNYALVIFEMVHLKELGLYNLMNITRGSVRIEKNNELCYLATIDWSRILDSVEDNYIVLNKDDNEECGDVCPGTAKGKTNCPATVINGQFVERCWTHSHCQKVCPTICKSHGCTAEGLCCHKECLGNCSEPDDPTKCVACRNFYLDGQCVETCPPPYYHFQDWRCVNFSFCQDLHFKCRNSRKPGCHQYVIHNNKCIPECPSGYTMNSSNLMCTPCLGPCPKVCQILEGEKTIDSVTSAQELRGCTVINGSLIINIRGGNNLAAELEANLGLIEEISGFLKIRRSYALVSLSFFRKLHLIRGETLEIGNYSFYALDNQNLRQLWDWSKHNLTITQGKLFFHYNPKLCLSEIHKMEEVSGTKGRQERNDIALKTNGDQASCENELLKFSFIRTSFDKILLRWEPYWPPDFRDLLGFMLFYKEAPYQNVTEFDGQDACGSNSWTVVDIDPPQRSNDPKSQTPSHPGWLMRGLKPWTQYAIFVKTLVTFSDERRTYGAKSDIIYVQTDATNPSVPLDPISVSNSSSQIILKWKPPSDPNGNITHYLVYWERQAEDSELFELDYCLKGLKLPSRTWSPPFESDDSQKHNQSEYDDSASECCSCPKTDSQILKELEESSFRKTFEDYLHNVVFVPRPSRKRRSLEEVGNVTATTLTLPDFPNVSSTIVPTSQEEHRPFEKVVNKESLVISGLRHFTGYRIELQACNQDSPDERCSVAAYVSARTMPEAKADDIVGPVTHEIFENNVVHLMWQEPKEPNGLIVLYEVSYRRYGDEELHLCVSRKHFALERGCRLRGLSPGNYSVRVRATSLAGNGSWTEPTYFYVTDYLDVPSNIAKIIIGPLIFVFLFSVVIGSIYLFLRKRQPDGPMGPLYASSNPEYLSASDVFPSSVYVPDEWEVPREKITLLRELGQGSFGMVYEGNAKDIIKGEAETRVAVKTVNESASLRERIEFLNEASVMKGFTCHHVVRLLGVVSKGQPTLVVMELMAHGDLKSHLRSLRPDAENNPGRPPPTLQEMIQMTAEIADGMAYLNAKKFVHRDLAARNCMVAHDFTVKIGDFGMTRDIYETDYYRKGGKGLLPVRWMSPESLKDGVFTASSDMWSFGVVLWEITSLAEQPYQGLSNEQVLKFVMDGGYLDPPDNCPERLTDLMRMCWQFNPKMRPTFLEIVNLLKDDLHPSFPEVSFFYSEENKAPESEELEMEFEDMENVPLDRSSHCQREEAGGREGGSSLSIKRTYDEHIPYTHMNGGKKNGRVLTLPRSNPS

Molecule: human insulin [reference compound]
- PGC-1α (change in expression) (PGC-1α): +50%
- p-IR/IR (change in expression) (p-IR/IR): 1.23
- p-Akt (change in expression) (p-Akt): +56%
- PPARα (change in expression) (PPARα): +40%
- GLUT4 (change in expression) (GLUT4): +41%
- mTOR (change in expression) (mTOR): −2%
- p-AMPK (change in expression) (p-AMPK): +1%

Molecule: VATVIQVL [polypeptide 5, reference compound]
- Expression of PGC-1α, result in words (PGC-1α): weaker enhancing effect
- PGC-1α (change in expression) (PGC-1α): +3%
- p-IR/IR (change in expression) (p-IR/IR): 1
- Expression of phosphorylated Akt, result in words (p-Akt): failed to increase the expression of phosphorylated Akt
- p-Akt (change in expression) (p-Akt): −42%
- Expression of PPARα, result in words (PPARα): weaker enhancing effect
- PPARα (change in expression) (PPARα): +23%
- Expression of GLUT4, result in words (GLUT4): weaker enhancing effect
- GLUT4 (change in expression) (GLUT4): +34%
- mTOR (change in expression) (mTOR): +0%
- p-AMPK (change in expression) (p-AMPK): +7%

Molecule: human insulin (MedChemExpress LLC) (from UniProt P01308 25-54; P01308 90-110) (ligand)
- p-IR/IR (insulin receptor): 1.23

Molecule: GGGDATRYSTGGGYS [polypeptide 1]
- Expression of PGC-1α, result in words (PGC-1α): enhance the expression of PGC-1α
- PGC-1α (change in expression) (PGC-1α): +161%
- Insulin receptor phosphorylation (p-IR/IR), result in words (p-IR/IR): able to encourage insulin receptor phosphorylation
- Expression of phosphorylated Akt, result in words (p-Akt): increase the expression of phosphorylated Akt
- p-Akt (change in expression) (p-Akt): +196%
- Expression of PPARα, result in words (PPARα): enhance the expression of PGC-1α and PPARα
- PPARα (change in expression) (PPARα): +173%
- Expression of GLUT4, result in words (GLUT4): increase the expression of phosphorylated Akt and GLUT4
- GLUT4 (change in expression) (GLUT4): +376%
- mTOR (change in expression) (mTOR): +136%
- p-AMPK (change in expression) (p-AMPK): +232%

Molecule: MQIFVK [polypeptide 4]
- Expression of PGC-1α, result in words (PGC-1α): enhance the expression of PGC-1α
- PGC-1α (change in expression) (PGC-1α): +155%
- Insulin receptor phosphorylation (p-IR/IR), result in words (p-IR/IR): able to encourage insulin receptor phosphorylation
- Expression of phosphorylated Akt, result in words (p-Akt): failure to increase the expression of phosphorylated Akt significantly
- p-Akt (change in expression) (p-Akt): −3%
- Expression of PPARα, result in words (PPARα): enhance the expression of PGC-1α and PPARα
- PPARα (change in expression) (PPARα): +151%
- Expression of GLUT4, result in words (GLUT4): increase the expression of GLUT4
- GLUT4 (change in expression) (GLUT4): +156%
- mTOR (change in expression) (mTOR): +74%
- p-AMPK (change in expression) (p-AMPK): +91%

Molecule: MQIFVKTLTG [polypeptide 3]
- Expression of PGC-1α, result in words (PGC-1α): enhance the expression of PGC-1α
- PGC-1α (change in expression) (PGC-1α): +258%
- Insulin receptor phosphorylation (p-IR/IR), result in words (p-IR/IR): able to encourage insulin receptor phosphorylation
- Expression of phosphorylated Akt, result in words (p-Akt): increase the expression of phosphorylated Akt
- p-Akt (change in expression) (p-Akt): +153%
- Expression of PPARα, result in words (PPARα): enhance the expression of PGC-1α and PPARα
- PPARα (change in expression) (PPARα): +196%
- Expression of GLUT4, result in words (GLUT4): increase the expression of phosphorylated Akt and GLUT4
- GLUT4 (change in expression) (GLUT4): +582%
- mTOR (change in expression) (mTOR): +117%
- p-AMPK (change in expression) (p-AMPK): +210%

Molecule: INPNEQREV [polypeptide 2]
- Expression of PGC-1α, result in words (PGC-1α): enhance the expression of PGC-1α
- PGC-1α (change in expression) (PGC-1α): +0%
- Insulin receptor phosphorylation (p-IR/IR), result in words (p-IR/IR): able to encourage insulin receptor phosphorylation
- Expression of phosphorylated Akt, result in words (p-Akt): increase the expression of phosphorylated Akt
- p-Akt (change in expression) (p-Akt): +29%
- Expression of PPARα, result in words (PPARα): enhance the expression of PGC-1α and PPARα
- PPARα (change in expression) (PPARα): +62%
- Expression of GLUT4, result in words (GLUT4): increase the expression of phosphorylated Akt and GLUT4
- GLUT4 (change in expression) (GLUT4): +23%
- mTOR (change in expression) (mTOR): +22%
- p-AMPK (change in expression) (p-AMPK): +70%

Molecule: MQIFVK [Polypeptide 4]
- p-IR/IR (insulin receptor): 1.97

Molecule: INPNEQREV [Polypeptide 2]
- p-IR/IR (insulin receptor): 1

Molecule: GGGDATRYSTGGGYS [Polypeptide 1]
- p-IR/IR (insulin receptor): 1.81

Molecule: MQIFVKTLTG [Polypeptide 3]
- p-IR/IR (insulin receptor): 3.08
